Source: ChEMBL document CHEMBL3860033, “Recent advances of cytotoxic chalconoids targeting tubulin polymerization: Synthesis and biological activity” (Eur J Med Chem, 2016)

How the values were obtained:
[1] = Cytotoxicity against human SW620 cells assessed as decrease in cell viability after 24 to 48 hrs by CCK8 assay; type: functional, cell-based; settings: SW-620
[2] = Cytotoxicity against human NCI60 cells after 48 hrs by SRB assay; type: functional; settings: NCI60, 48 h
[3] = Inhibition of porcine brain tubulin polymerization by spectrophotometric method; design: species or system Sus scrofa
[4] = Displacement of [3H]-colchicine from porcine tubulin; design: species or system Sus scrofa
[5] = Cytotoxicity against human Capan1 cells assessed as decrease in cell viability after 24 to 48 hrs by CCK8 assay; type: functional, cell-based; settings: CAPAN-1
Ovis aries = organism: Ovis aries; experiment: Binding affinity to lamb brain tubulin using ultracentrifuge by absorbance assay
[6] = Cytotoxicity against human K562 cells assessed as growth inhibition after 5 days by MTT assay; type: functional, cell-based; settings: K562, 120 h
[7] = Cytotoxicity against human A549 cells assessed as decrease in cell viability after 72 hrs by MTT assay; type: functional, cell-based; settings: A549, 72 h
[8] = Cytotoxicity against human HCT116 cells assessed as decrease in cell viability after 72 hrs by MTT assay; type: functional, cell-based; settings: HCT-116, 72 h
[9] = Cytotoxicity against human HeLa cells assessed as decrease in cell viability after 72 hrs by MTT assay; type: functional, cell-based

COc1cc(OC)c(/C=C/C(=O)c2c(O)ccc3ccccc23)c(OC)c1
IC50 [1]: 14.5 µM

COc1cc(C(=O)C2OC2c2cc(OC)c(OC)c(OC)c2)cc(OC)c1OC (stereo not given)
GI50 [2]: 14.1 µM

COc1ccc(/C=C2\Oc3c(cc(OC)c(OC)c3OC)C2=O)cc1O
IC50 [3]: 22 µM
IC50 [4]: 60 µM

COc1ccc(C(=O)/C=C/c2cccc3ccccc23)c(O)c1
IC50 [5]: 5.2 µM

COc1cc(OC)c(C(=O)/C=C/c2cn(C)c3ccccc23)c(OC)c1
Kapp (Ovis aries): 2 ×10⁵ /M

COc1ccc(C=C(C)C(=O)c2cc(OC)c(OC)c(OC)c2)cc1O
IC50 [6]: 0.0002 µM

CCOc1cc2c(cc1C(=O)/C=C/c1ccc(OC)c(O)c1)OCS2
IC50 [7]: 0.001 to 0.009 µM
IC50 [8]: 0.001 to 0.009 µM
IC50 [9]: 0.001 to 0.009 µM
